ChEMBL document CHEMBL3988442, “University of Dundee, Small-Polar-MMV Screening Library” (2021)
Where “and” joins values, the source holds several entries; their conditions need not be identical. Equal values may be shown once.

Target: Polyketide synthase Pks13 (Mycobacterium tuberculosis (strain ATCC 25618 / H37Rv), UniProt I6X8D2)
Experiment: Mycobacterium tuberculosis Polyketide synthase 13 Thioesterase (PKS13)
Type: functional

Polyketide synthase Pks13, sequence (I6X8D2 whole entry): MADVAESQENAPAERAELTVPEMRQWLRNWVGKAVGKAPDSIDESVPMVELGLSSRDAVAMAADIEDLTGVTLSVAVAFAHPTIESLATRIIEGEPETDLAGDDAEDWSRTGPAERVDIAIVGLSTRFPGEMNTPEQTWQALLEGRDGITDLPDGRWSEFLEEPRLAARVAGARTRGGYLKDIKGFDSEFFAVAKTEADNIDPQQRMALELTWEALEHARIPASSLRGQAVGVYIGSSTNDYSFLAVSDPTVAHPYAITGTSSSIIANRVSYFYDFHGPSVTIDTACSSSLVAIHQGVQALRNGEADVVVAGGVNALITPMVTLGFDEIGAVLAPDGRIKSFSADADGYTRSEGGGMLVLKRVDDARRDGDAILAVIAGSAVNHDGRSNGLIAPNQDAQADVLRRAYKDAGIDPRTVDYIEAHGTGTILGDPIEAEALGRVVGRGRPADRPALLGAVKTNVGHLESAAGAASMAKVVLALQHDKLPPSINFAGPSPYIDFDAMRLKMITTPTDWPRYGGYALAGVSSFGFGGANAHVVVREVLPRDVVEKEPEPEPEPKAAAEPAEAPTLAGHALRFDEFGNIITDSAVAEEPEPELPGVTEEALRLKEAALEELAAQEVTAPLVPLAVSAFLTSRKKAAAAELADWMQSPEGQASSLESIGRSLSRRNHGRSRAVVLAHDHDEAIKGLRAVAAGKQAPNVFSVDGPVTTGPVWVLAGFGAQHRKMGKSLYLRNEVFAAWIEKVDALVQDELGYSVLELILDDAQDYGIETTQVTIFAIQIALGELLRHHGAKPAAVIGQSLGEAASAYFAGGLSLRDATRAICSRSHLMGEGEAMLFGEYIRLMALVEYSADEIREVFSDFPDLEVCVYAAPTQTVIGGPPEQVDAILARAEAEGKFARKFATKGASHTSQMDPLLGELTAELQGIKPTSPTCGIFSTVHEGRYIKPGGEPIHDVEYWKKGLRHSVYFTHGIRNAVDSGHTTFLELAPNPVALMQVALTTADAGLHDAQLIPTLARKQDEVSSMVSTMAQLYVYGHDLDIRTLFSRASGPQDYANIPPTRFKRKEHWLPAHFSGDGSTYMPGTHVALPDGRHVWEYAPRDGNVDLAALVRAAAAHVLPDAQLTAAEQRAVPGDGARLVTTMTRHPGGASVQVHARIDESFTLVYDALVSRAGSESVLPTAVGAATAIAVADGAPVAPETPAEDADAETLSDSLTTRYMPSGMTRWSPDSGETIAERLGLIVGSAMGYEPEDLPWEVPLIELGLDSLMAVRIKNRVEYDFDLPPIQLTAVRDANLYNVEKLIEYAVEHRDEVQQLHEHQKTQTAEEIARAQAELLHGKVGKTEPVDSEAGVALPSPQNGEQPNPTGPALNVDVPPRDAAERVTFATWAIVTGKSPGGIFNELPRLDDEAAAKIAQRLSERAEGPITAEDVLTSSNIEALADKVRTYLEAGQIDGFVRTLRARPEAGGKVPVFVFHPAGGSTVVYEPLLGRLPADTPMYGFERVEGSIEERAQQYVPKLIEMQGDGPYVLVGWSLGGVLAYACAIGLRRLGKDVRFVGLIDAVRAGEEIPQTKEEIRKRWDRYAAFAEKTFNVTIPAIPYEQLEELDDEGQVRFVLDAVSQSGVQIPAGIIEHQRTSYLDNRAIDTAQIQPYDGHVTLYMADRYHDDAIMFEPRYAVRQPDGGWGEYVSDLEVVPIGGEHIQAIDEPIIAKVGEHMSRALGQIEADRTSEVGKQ

Compound | IC50
COc1cccc(N2CCN(C(=O)C(O)c3ccccc3Cl)CC2=O)c1 (stereo not given) | > 100 µM
CN(Cc1ccc(N2CCCCC2)cc1)Cc1noc(C(C)(C)C)n1 | > 100 µM
COC(=O)c1ccc(NC2CCN(CC(F)(F)F)C2=O)cc1C (stereo not given) | > 100 µM
CCN(CC)C(=O)c1cc(C2CCCN2C)ccn1 (stereo not given) | > 100 µM
Cc1cccc(OC2CCN(c3nccnc3C#N)CC2)n1 | 42.2 µM and 46 µM
Cc1csc2ncc(-c3ccnc(N4CCCC4)n3)c(=O)n12 | > 100 µM
CCC(CC)C(=O)n1ccn(S(=O)(=O)c2ccc(C)cc2)c1=O | 20 µM and 19.7 µM
c1ccc(CCCN2CC[C@H](c3nnc(-c4ccccc4)o3)C2)cc1 | > 100 µM
Cc1nnsc1C(=O)N1CC[C@H](c2ccccc2)[C@@H]2[C@H]1CCCCN2C | > 100 µM
NC(=O)CSc1nccc(-c2ccc3c(c2)OCO3)n1 | 20 µM and 18.9 µM
O=C1CC(c2ccc(F)c(F)c2)c2snc(C(=O)O)c2N1 (stereo not given) | > 100 µM
Cc1nc(-c2ccc(Cl)s2)sc1C(=O)NCCS(N)(=O)=O | 33.3 µM and 21 µM
COc1cccc(CN2CCC3(CCN(c4ncc(C)cn4)CC3)C2)c1 | > 100 µM
O=C(COCc1ccccc1Cl)N1CCN(c2ccc(Br)cn2)CC1 | 26.1 µM and 19.2 µM
CCC(C)Nc1ccc(-c2nc(-c3cccc(OC)c3OC)no2)cn1 (stereo not given) | 28.7 µM and 14 µM
Cc1ccc(C(=O)N2CCN(c3ncnc4nc(N)ccc34)CC2)o1 | > 100 µM
CCc1cccc(NS(=O)(=O)c2cc(C)c(C(=O)O)s2)c1 | 16.6 µM and 11.6 µM
Cc1n[nH]c(SCC(=O)N2C[C@H]3CC[C@@H]2CN(c2ncccn2)C3)n1 | > 100 µM
CC(C)(C)c1nc(CN(CCC2CCCCC2)CC(N)=O)no1 | > 100 µM
COc1ccc2c(C(=O)N(C)C)cc(-c3cnc(N)nc3)nc2c1 | 30.4 µM and 38.7 µM
O=C(c1cc2cc(F)ccc2[nH]1)N1CCC(Nc2ccc(F)cc2)CC1 | > 100 µM and 12.6 µM
O=c1[nH]c(NC2CCCC2)nc2nccc(-c3cccs3)c12 | 8.33 µM and 21.7 µM
COc1cccc(C(=O)N2CCc3c(nc(N)[nH]c3=O)C2)c1C | > 100 µM
COCc1nc(C(=O)OCC2CCN(c3ccccc3)C2)cs1 (stereo not given) | > 100 µM and 16 µM

Compound | IC50
Cc1cc(C2CCCCN2C(=O)c2ccsc2)nc2nccn12 (stereo not given) | > 100 µM
COc1ccc(NC(C)C(=O)N2CCCC2)cn1 (stereo not given) | > 100 µM
N#Cc1cccc(N2CCC(CO)(CCOc3ccccc3)CC2)n1 | 48.2 µM and 33.8 µM
Cc1ccc2nc(C(=O)N(C)[C@@H]3CC[C@@H](N4CCCC4)[C@@H]3O)cn2c1 | > 100 µM
COc1cccc(-c2cc(NCC(=O)O)nc3[nH]ccc23)n1 | 29.9 µM and 35.7 µM
c1ccc2c(c1)CN(c1ncnc3sc4c(c13)CCNC4)CCO2 | > 100 µM
Cc1ncc(CN)c(-c2cn(C)c3ccccc23)n1 | 89.1 µM and > 100 µM
O=C(c1cnc2c(cnn2C2CCCC2)c1)N1CCN(CCO)CC1 | > 100 µM
Cc1nn(C)cc1-c1ccnc(N(C)Cc2ccoc2)n1 | > 100 µM
CN(C)c1nccc(-c2c[nH][nH]c2=O)n1 | > 100 µM
COC(=O)C(C)(C)NC(=O)c1cc2sc(N(C)C)nc2s1 | 21.9 µM and 10.8 µM
CCc1nc2n(n1)CC(NCc1ncc(-c3ccccc3)o1)CC2 (stereo not given) | > 100 µM
CCC(=O)NCC(=O)NCC(C)(C)c1cccc(Br)c1 | > 100 µM
O=C(NCc1ccc2c(c1)OCCO2)N1CCC(CO)CC1 | > 100 µM
C[C@H](NC(=O)c1cccc(CCC(C)(C)O)c1)C(N)=O | > 100 µM
Cc1cccc(COc2ccc(NC(=O)C(C)NC(N)=O)c(C)c2)c1 (stereo not given) | > 100 µM
Cc1nc(CN(C)C(=O)NC(C)c2ccc3c(c2)OCCO3)cs1 (stereo not given) | > 100 µM
CCc1cnc(N2CC[C@H]3[C@@H]2CCC(=O)N3CC2CCOCC2)nc1 | > 100 µM
COc1ccc(-c2ccnc3nc(N4CCCCC4)[nH]c(=O)c23)cc1 | 19.6 µM and 3.94 µM
Cc1ccc(-c2cc(C(=O)NCCCc3csc(N)n3)[nH]n2)s1 | 9.27 µM and 17 µM
Cc1ncc(CNCC(C)O)c2cc(C(=O)c3ccc(Br)cc3)oc12 (stereo not given) | > 100 µM
Cc1noc(CNc2ccc(CC(=O)N3CCSCC3)cc2)n1 | > 100 µM
Nc1nccnc1CC1CCCN(Cc2ccnc3ccccc23)C1 (stereo not given) | > 100 µM
Cc1cc(NCc2cccc(C#N)c2)ccc1Br | 20.6 µM and 18 µM

Compound | IC50
Cc1cnn(CC2CCCN2Cc2cc(=O)n3cc(C)ccc3n2)c1 (stereo not given) | > 100 µM and 95.9 µM
Cc1cc(C)n(-c2nc(C(=O)NCCN3CCC(C)CC3)cs2)n1 | > 100 µM
O=C(O)CSc1nccc(-c2ccc3c(c2)OCO3)n1 | 16.4 µM and 18.6 µM
COc1ccc(C2CCCN2C(=O)c2cc3c([nH]c2=O)CCC3)cc1 (stereo not given) | 31.9 µM and 34.5 µM
O=C(Nc1cnc(N2CCOCC2)nc1)c1ccc(C(F)(F)F)cc1 | 22.3 µM and 20.4 µM
CCN1CC(C(=O)N2CCN(c3nsc4ccccc34)CC2)CCC1=O (stereo not given) | 90.7 µM and 73 µM
CN(C)c1ncnc2c1CCN(C(=O)c1cccnc1)CC2 | > 100 µM
CC(C)(C)c1cc(NC(=O)CN2CCC(N3CCNC3=O)CC2)on1 | > 100 µM
CN1CC2(CCCN(Cc3nnc(-c4ccco4)o3)CC2)OC1=O (stereo not given) | > 100 µM
CCC[C@H]1CN(S(C)(=O)=O)C[C@@H]1NC(=O)c1ccc(COC)cc1 | > 100 µM
COCC1CCN(C(=O)c2cc(-c3ccco3)nc3c(Cl)cccc23)C1 (stereo not given) | 34.6 µM and > 100 µM
O=C(O)[C@]12CCCN(Cc3ccccn3)[C@@H]1CCN(c1cnccn1)C2 | > 100 µM
Cc1ccc(NC(=O)c2nc3c(s2)CCCN3C(=O)C2CC2)cn1 | > 100 µM
Cc1ccc(CN2CCCC(c3nn(C)c4nccnc34)C2)s1 (stereo not given) | > 100 µM
COc1ccc2[nH]cc(-c3ccnc(N4CCC(C)CC4)n3)c2c1 | 33.7 µM and 30 µM
CCc1cccc(C)c1NC(=O)C1CC(=O)N(Cc2ccccn2)C1 (stereo not given) | > 100 µM
COCCN1CCCC2(CCN(c3nccnc3N(C)C)C2)C1=O (stereo not given) | > 100 µM
COc1cccc(-c2noc(-c3ccc(NCC(C)C)nc3)n2)c1OC | 15.7 µM and 26.8 µM
CCCn1nnc(NCc2ccc(-c3ccc(Br)cc3)o2)n1 | 29.6 µM and > 100 µM
Cc1n[nH]c(C)c1CCN(C)c1ccc(-c2nc(C3CC3)no2)cn1 | > 100 µM
N#Cc1ccc(C(=O)O)nc1/C=C/c1cccc(Cl)c1 | > 100 µM
Cn1c(NCC(=O)N2CCCC2)c(C#N)c(=O)n(C)c1=O | > 100 µM
CC(=O)c1ccc(N2CCCC(CO)(CCc3ccccc3)C2)nc1 (stereo not given) | 72.2 µM and 69.8 µM
CCOCCCNC(=O)c1cn(C(C)(C)C)c2ncccc12 | > 100 µM

Compound | IC50
CC(C)(C)C(=O)N1CCC(n2nc(-c3ccco3)ccc2=O)CC1 | > 100 µM
CCn1c(SCC(=O)N2CCCC2)nc2cc(C)[nH]c2c1=O | > 100 µM
NC(=O)c1cc(C2CC2)nc2ccc(F)cc12 | > 100 µM
O=C(C1CC1)N1CCc2ccccc2C12CCNCC2 | > 100 µM
CCCNC(=O)CCNc1cncc(-n2nc(C)cc2C)n1 | 28 µM and 22 µM
CC(NC(=O)Nc1cccnc1N1CCCC1)c1nncn1C (stereo not given) | > 100 µM
O=C(Nc1cc(CSCCO)ccn1)c1ccc(Cl)o1 | > 100 µM and 98.1 µM
O=C(Cc1cccc(F)c1)N1CCc2ncnc(NC3CC3)c2CC1 | > 100 µM
Cc1ccccc1S(=O)(=O)N[C@@H]1CC[C@@H](N2CCNC(=O)C2)[C@@H]1O | > 100 µM
Cc1ccc(-c2ncc(C(=O)NCCNc3ncccn3)s2)c(C)c1 | 12 µM and 14.8 µM
Cc1cc(S(=O)(=O)Nc2cccc(OC(F)F)c2)sc1C(=O)O | 16.4 µM and 3.37 µM
CC(C)NC(=O)[C@@H]1CN(C(=O)C2CC2)C[C@]12Cc1ccccc1C(=O)N2 | > 100 µM
CN(C)C[C@@H]1[C@H]2CN(C(=O)c3cc(=O)[nH]c4ccc(F)cc34)C[C@@H]12 | 98.5 µM and > 100 µM
CNc1cncc(C2CCCN2c2cc(C)ncn2)n1 (stereo not given) | 20.5 µM and 30.5 µM
Cn1cc(I)c(C(=O)NCCCn2cc(Br)cn2)n1 | 9.34 µM and 48.9 µM
Cc1ccc(CNC(=O)C2CCCCN2C(=O)OC(C)(C)C)cn1 (stereo not given) | > 100 µM
Cn1cc(-c2ncc3c(c2C(=O)O)CCN(CC2CCOC2)C3)cn1 (stereo not given) | > 100 µM
CNc1cncc(C2CCCN2C(=O)Cn2c(=O)oc3ccccc32)n1 (stereo not given) | 30.2 µM and > 57.5 µM
Cc1cccn2c(=O)cc(CSCC(=O)Nc3nnc(C(C)C)s3)nc12 | > 100 µM
Cn1cc(-c2cc(C(F)F)n3nc(CCC(=O)O)nc3n2)cn1 | 12 µM and 19.8 µM
Cc1n[nH]c(C)c1CCC(=O)NCC1(O)CCN(c2ccccn2)C1 (stereo not given) | > 100 µM
CN(C)C(=O)c1cn[nH]c1C1(C)CCN(c2ncccn2)CC1 | > 100 µM
O=C1CNc2ncnc(N3CCN(Cc4ccccc4F)CC3)c2N1 | > 100 µM
CC(C)c1nc(CN2CCc3onc(-c4cccc(F)c4)c3C2)no1 | > 100 µM

Compound | IC50
CNC(=O)c1cnc(/C=C/c2cc(OC)cc(OC)c2)s1 | 29.1 µM and 11 µM
N#Cc1cccc(N2CCC(CO)(CCCc3ccccc3)CC2)n1 | > 18.6 µM and 25.5 µM
CC(NC(=O)CN(C)S(C)(=O)=O)c1nnc2n1CCCCC2 (stereo not given) | > 100 µM
Cn1ccnc1C(=O)N1C[C@@H]2CCN(c3cnccn3)C[C@@H]2C1 | > 100 µM
O=C(Nc1nc2c(s1)CN(S(=O)(=O)C1CC1)CC2)c1cccc(Cl)c1 | 12.2 µM and 20.2 µM
Cc1cc(S(=O)(=O)Nc2cccc(I)c2)sc1C(=O)O | 6.1 µM and 15.1 µM
CN(CC1CCCCC1)C(=O)c1ccc(-n2ncc(C#N)c2N)cc1 | 40.8 µM and 6.64 µM
CC(O)CN1CCC(CNCc2cccc(C(N)=O)c2)CC1 (stereo not given) | > 100 µM
CCOC1CC2(CCN(C(=O)Cc3ccccn3)CC2)C1 | > 100 µM
Cc1cc(C)c2cc(CNCc3cccnc3)c3nn(C)c(=O)n3c2c1 | 59.1 µM
CCC1(C)Cc2ccccc2-c2nc(NCCO)nc(O)c21 (stereo not given) | 31.8 µM and 28.8 µM
CC(=O)N1N=C(c2ccco2)OC1C(=O)NCC(C)C (stereo not given) | > 100 µM
CC(Nc1cnn(C)c(=O)c1Cl)c1ccc(F)c(F)c1 (stereo not given) | > 100 µM
O=C(OCC1CCN(c2ccccc2)C1)c1cscn1 (stereo not given) | 29.9 µM and 4.14 µM
CC(=O)N1CCCC1c1ccc(Br)cn1 (stereo not given) | > 100 µM
Cn1ccc(C(=O)NCc2cccc(NC(=O)C3CCC3)c2)cc1=O | > 100 µM
CNC(=O)CNC1CC2(CCN(c3ncccn3)CC2)c2ccccc21 (stereo not given) | > 100 µM
Cn1cc(-c2ccnc(NCC3CCN(Cc4ccccc4)C3)n2)cn1 (stereo not given) | > 100 µM and 60.6 µM
CCOCCC(=O)N1CCc2cccc(S(=O)(=O)N3CCOCC3)c2C1 | > 100 µM and 20.4 µM
CC(C)OCc1ncn2c1CN(Cc1nccs1)CCC2 | > 100 µM
Nc1cc(C(=O)NCC2CCN(Cc3ccncc3F)C2)ccn1 (stereo not given) | > 100 µM
CCc1noc(Cn2c(=O)c3c(C(F)(F)F)cc(C)nc3n2C)n1 | 36 µM and 34.8 µM
CC1CCc2nc(O)c(C(=O)NCCCN3CCN(C)CC3)cc2C1 (stereo not given) | 31.6 µM and 37.1 µM
COc1ccccc1N1CCC(CNS(=O)(=O)c2cccs2)C1 (stereo not given) | 10.3 µM and 4.51 µM
